Measured values: PubChem BioAssay AID1918934 (Molecular Pharmacology Branch, DTP, NCI, 2023)

System: 292921-168-R-J2-PDC complex spheroid viability
Experiment: Anticancer human tumor 292921-168-R-J2-PDC patient-derived pancreatic carcinoma cell line growth inhibition
Details: for IC50: curve of first compound; for viability, T/C: stronger effect = lower value; active means viability on the fitted dose curve at most 10% of control; inactive means the rest
Summary of the method: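 Multicellular complex spheroids of tumor cells with human endothelial cells (HUVEC) and mesenchymal stem cells; the LSD1 inhibitor iadademstat was combined with standard-of-care or investigational agents. Top concentration at or near clinical Cmax, half-log dilutions; final DMSO ≤0.25%.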

[1] = second compound 0.1 µM, first compound 0.0316 µM
[2] = second compound 0.1 µM, first compound 0.1 µM
[3] = second compound 0.316 µM, first compound 0.0316 µM
[4] = second compound 0.316 µM, first compound 0.1 µM
[5] = second compound 1 µM, first compound 0.0316 µM
[6] = second compound 1 µM, first compound 0.1 µM
[7] = second compound 3.16 µM, first compound 0.0316 µM
[8] = second compound 3.16 µM, first compound 0.1 µM
[9] = second compound 10 µM, first compound 0.0316 µM
[10] = second compound 10 µM, first compound 0.1 µM
[11] = second compound 0.1 µM, first compound 0.000949 µM
[12] = second compound 0.1 µM, first compound 0.003 µM
[13] = second compound 0.1 µM, first compound 0.00949 µM
[14] = second compound 0.1 µM, first compound 0.03 µM
[15] = second compound 0.1 µM, first compound 0.0949 µM
[16] = second compound 0.1 µM, first compound 0.3 µM
[17] = second compound 0.316 µM, first compound 0.000949 µM
[18] = second compound 0.316 µM, first compound 0.003 µM
[19] = second compound 0.316 µM, first compound 0.00949 µM
[20] = second compound 0.316 µM, first compound 0.03 µM
[21] = second compound 0.316 µM, first compound 0.0949 µM
[22] = second compound 0.316 µM, first compound 0.3 µM
[23] = second compound 1 µM, first compound 0.000949 µM
[24] = second compound 1 µM, first compound 0.003 µM
[25] = second compound 1 µM, first compound 0.00949 µM
[26] = second compound 1 µM, first compound 0.03 µM
[27] = second compound 1 µM, first compound 0.0949 µM
[28] = second compound 1 µM, first compound 0.3 µM
[29] = second compound 3.16 µM, first compound 0.000949 µM
[30] = second compound 3.16 µM, first compound 0.003 µM
[31] = second compound 3.16 µM, first compound 0.00949 µM
[32] = second compound 3.16 µM, first compound 0.03 µM
[33] = second compound 3.16 µM, first compound 0.0949 µM
[34] = second compound 3.16 µM, first compound 0.3 µM
[35] = second compound 10 µM, first compound 0.000949 µM
[36] = second compound 10 µM, first compound 0.003 µM
[37] = second compound 10 µM, first compound 0.00949 µM
[38] = second compound 10 µM, first compound 0.03 µM
[39] = second compound 10 µM, first compound 0.0949 µM
[40] = second compound 10 µM, first compound 0.3 µM
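Further: seven day compound exposure before luminescent viability read.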
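Wherever viability, T/C is given: 100% = DMSO vehicle control wells.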

CC[C@@]1(O)C(=O)OCc2c1cc1n(c2=O)Cc2cc3c(CN(C)C)c(O)ccc3nc2-1 + NC1CCC(NC2CC2c2ccccc2)CC1
inactive: viability, T/C (second compound 0.1 µM, first compound 0.000316 µM) 64.5% | viability, T/C (second compound 0.1 µM, first compound 0.001 µM) 60.2% | viability, T/C (second compound 0.1 µM, first compound 0.00316 µM) 44.6% | viability, T/C (second compound 0.1 µM, first compound 0.01 µM) 19.7% | viability, T/C (second compound 0.316 µM, first compound 0.000316 µM) 61.4% | viability, T/C (second compound 0.316 µM, first compound 0.001 µM) 61% | viability, T/C (second compound 0.316 µM, first compound 0.00316 µM) 37.9% | viability, T/C (second compound 0.316 µM, first compound 0.01 µM) 18.5% | viability, T/C (second compound 1 µM, first compound 0.000316 µM) 61.2% | viability, T/C (second compound 1 µM, first compound 0.001 µM) 56.4% | viability, T/C (second compound 1 µM, first compound 0.00316 µM) 40.9% | viability, T/C (second compound 1 µM, first compound 0.01 µM) 19.4% | viability, T/C (second compound 3.16 µM, first compound 0.000316 µM) 54.9% | viability, T/C (second compound 3.16 µM, first compound 0.001 µM) 50.8% | viability, T/C (second compound 3.16 µM, first compound 0.00316 µM) 38.2% | viability, T/C (second compound 3.16 µM, first compound 0.01 µM) 18.5% | viability, T/C (second compound 10 µM, first compound 0.000316 µM) 51.4% | viability, T/C (second compound 10 µM, first compound 0.001 µM) 50.9% | viability, T/C (second compound 10 µM, first compound 0.00316 µM) 36.9% | viability, T/C (second compound 10 µM, first compound 0.01 µM) 15.6%
0.869 nM: IC50 (second compound 10 µM)
2.11 nM: IC50 (second compound 0.1 µM)
1.07 nM: IC50 (second compound 3.16 µM)
1.58 nM: IC50 (second compound 1 µM)
active: viability, T/C [1] 8.14% | viability, T/C [2] 4.05% | viability, T/C [3] 8.83% | viability, T/C [4] 4.07% | viability, T/C [5] 10.6% | viability, T/C [6] 4.35% | viability, T/C [7] 8.6% | viability, T/C [8] 3.74% | viability, T/C [9] 8.03% | viability, T/C [10] 3.69%
1.65 nM: IC50 (second compound 0.316 µM)

CCc1c2c(nc3ccc(O)cc13)-c1cc3c(c(=O)n1C2)COC(=O)[C@]3(O)CC + NC1CCC(NC2CC2c2ccccc2)CC1
< 0.949 nM: IC50 (second compound 0.1 µM) | IC50 (second compound 0.316 µM) | IC50 (second compound 1 µM) | IC50 (second compound 3.16 µM) | IC50 (second compound 10 µM)
active: viability, T/C [11] 5.27% | viability, T/C [12] 3.61% | viability, T/C [13] 1.77% | viability, T/C [14] 0.99% | viability, T/C [15] 0.98% | viability, T/C [16] 1.08% | viability, T/C [17] 5.76% | viability, T/C [18] 4.37% | viability, T/C [19] 1.62% | viability, T/C [20] 0.85% | viability, T/C [21] 0.86% | viability, T/C [22] 1.09% | viability, T/C [23] 5.78% | viability, T/C [24] 3.94% | viability, T/C [25] 1.33% | viability, T/C [26] 0.71% | viability, T/C [27] 0.85% | viability, T/C [28] 0.78% | viability, T/C [29] 6.37% | viability, T/C [30] 3.93% | viability, T/C [31] 1.39% | viability, T/C [32] 0.55% | viability, T/C [33] 0.97% | viability, T/C [34] 0.91% | viability, T/C [35] 4.96% | viability, T/C [36] 3.66% | viability, T/C [37] 0.99% | viability, T/C [38] 0.7% | viability, T/C [39] 0.8% | viability, T/C [40] 0.74%

COc1cc(C2c3cc4c(cc3C(OC3OC5COC(C)OC5C(O)C3O)C3COC(=O)C23)OCO4)cc(OC)c1O (stereo not given) + NC1CCC(NC2CC2c2ccccc2)CC1
24.2 nM: IC50 (second compound 0.316 µM)
23.8 nM: IC50 (second compound 0.1 µM)
16.3 nM: IC50 (second compound 1 µM)
9.52 nM: IC50 (second compound 10 µM)
active: viability, T/C (second compound 0.1 µM, first compound 3 µM) 5.3% | viability, T/C (second compound 0.316 µM, first compound 3 µM) 6.82% | viability, T/C (second compound 1 µM, first compound 3 µM) 5.56% | viability, T/C (second compound 3.16 µM, first compound 3 µM) 7.39% | viability, T/C (second compound 10 µM, first compound 0.949 µM) 9.55% | viability, T/C (second compound 10 µM, first compound 3 µM) 6.68%
inactive: viability, T/C [13] 62.7% | viability, T/C [14] 48.7% | viability, T/C [15] 27.9% | viability, T/C [16] 20.8% | viability, T/C (second compound 0.1 µM, first compound 0.949 µM) 11.2% | viability, T/C [19] 67.6% | viability, T/C [20] 45.2% | viability, T/C [21] 29.6% | viability, T/C [22] 21.5% | viability, T/C (second compound 0.316 µM, first compound 0.949 µM) 8.7% | viability, T/C [25] 56% | viability, T/C [26] 42.9% | viability, T/C [27] 30.5% | viability, T/C [28] 20% | viability, T/C (second compound 1 µM, first compound 0.949 µM) 8.76% | viability, T/C [31] 56.1% | viability, T/C [32] 40.5% | viability, T/C [33] 30.7% | viability, T/C [34] 19% | viability, T/C (second compound 3.16 µM, first compound 0.949 µM) 8.55% | viability, T/C [37] 50.1% | viability, T/C [38] 38.8% | viability, T/C [39] 27.3% | viability, T/C [40] 16.3%
15.3 nM: IC50 (second compound 3.16 µM)

Nc1ccn(C2OC(CO)C(O)C2(F)F)c(=O)n1 (stereo not given) + NC1CCC(NC2CC2c2ccccc2)CC1
< 0.949 nM: IC50 (second compound 0.1 µM) | IC50 (second compound 0.316 µM) | IC50 (second compound 1 µM) | IC50 (second compound 3.16 µM) | IC50 (second compound 10 µM)
active: viability, T/C [12] 9.83% | viability, T/C [13] 8.07% | viability, T/C [14] 6.88% | viability, T/C [15] 7.25% | viability, T/C [16] 6.85% | viability, T/C [19] 6.99% | viability, T/C [20] 6.4% | viability, T/C [21] 8.06% | viability, T/C [22] 7.6% | viability, T/C [25] 8.29% | viability, T/C [26] 7.78% | viability, T/C [27] 8.71% | viability, T/C [28] 7.52% | viability, T/C [31] 8.35% | viability, T/C [32] 7.52% | viability, T/C [33] 8.12% | viability, T/C [34] 8.1% | viability, T/C [37] 9% | viability, T/C [38] 9.62% | viability, T/C [39] 8.3% | viability, T/C [40] 9.08%
inactive: viability, T/C [11] 27.8% | viability, T/C [17] 28.2% | viability, T/C [18] 11.6% | viability, T/C [23] 21.8% | viability, T/C [24] 10.7% | viability, T/C [29] 22.2% | viability, T/C [30] 10.4% | viability, T/C [35] 23.4% | viability, T/C [36] 10.2%

O=C(c1cc(Cc2n[nH]c(=O)c3ccccc23)ccc1F)N1CCN(C(=O)C2CC2)CC1 + NC1CCC(NC2CC2c2ccccc2)CC1
1220 nM: IC50 (second compound 3.16 µM)
3020 nM: IC50 (second compound 0.316 µM)
1300 nM: IC50 (second compound 10 µM)
4520 nM: IC50 (second compound 0.1 µM)
1060 nM: IC50 (second compound 1 µM)
inactive: viability, T/C [1] 63.7% | viability, T/C [2] 65.6% | viability, T/C (second compound 0.1 µM, first compound 0.316 µM) 70.3% | viability, T/C (second compound 0.1 µM, first compound 1 µM) 58.6% | viability, T/C (second compound 0.1 µM, first compound 3.16 µM) 55% | viability, T/C (second compound 0.1 µM, first compound 10 µM) 39.5% | viability, T/C [3] 61.5% | viability, T/C [4] 59.8% | viability, T/C (second compound 0.316 µM, first compound 0.316 µM) 64.7% | viability, T/C (second compound 0.316 µM, first compound 1 µM) 57.1% | viability, T/C (second compound 0.316 µM, first compound 3.16 µM) 47.5% | viability, T/C (second compound 0.316 µM, first compound 10 µM) 36% | viability, T/C [5] 55.5% | viability, T/C [6] 58.6% | viability, T/C (second compound 1 µM, first compound 0.316 µM) 51.8% | viability, T/C (second compound 1 µM, first compound 1 µM) 51.9% | viability, T/C (second compound 1 µM, first compound 3.16 µM) 42.5% | viability, T/C (second compound 1 µM, first compound 10 µM) 31.8% | viability, T/C [7] 55.4% | viability, T/C [8] 54.5% | viability, T/C (second compound 3.16 µM, first compound 0.316 µM) 60% | viability, T/C (second compound 3.16 µM, first compound 1 µM) 50.3% | viability, T/C (second compound 3.16 µM, first compound 3.16 µM) 42% | viability, T/C (second compound 3.16 µM, first compound 10 µM) 34.9% | viability, T/C [9] 53.9% | viability, T/C [10] 54.4% | viability, T/C (second compound 10 µM, first compound 0.316 µM) 54.4% | viability, T/C (second compound 10 µM, first compound 1 µM) 52% | viability, T/C (second compound 10 µM, first compound 3.16 µM) 42.9% | viability, T/C (second compound 10 µM, first compound 10 µM) 32%
